Enrichment ratioavg and competition ratioavg data for 2 molecules are collected here from US11226337B2, “Chemoproteomic profiling of protein electrophilic and oxidative post-translational modifications” (Zenagem, LLC, priority 2017, dated 2022).

Test [1] deals with T1, ALDH2 Aldehyde dehydrogenase (P05091) (Homo sapiens, UniProt P05091).
T1 construct: shared by both the endogenous and recombinant forms of these proteins; endogenous in cells; host or cells: HEK293T and MDA-MB-231
T1 sequence (P05091 18-517): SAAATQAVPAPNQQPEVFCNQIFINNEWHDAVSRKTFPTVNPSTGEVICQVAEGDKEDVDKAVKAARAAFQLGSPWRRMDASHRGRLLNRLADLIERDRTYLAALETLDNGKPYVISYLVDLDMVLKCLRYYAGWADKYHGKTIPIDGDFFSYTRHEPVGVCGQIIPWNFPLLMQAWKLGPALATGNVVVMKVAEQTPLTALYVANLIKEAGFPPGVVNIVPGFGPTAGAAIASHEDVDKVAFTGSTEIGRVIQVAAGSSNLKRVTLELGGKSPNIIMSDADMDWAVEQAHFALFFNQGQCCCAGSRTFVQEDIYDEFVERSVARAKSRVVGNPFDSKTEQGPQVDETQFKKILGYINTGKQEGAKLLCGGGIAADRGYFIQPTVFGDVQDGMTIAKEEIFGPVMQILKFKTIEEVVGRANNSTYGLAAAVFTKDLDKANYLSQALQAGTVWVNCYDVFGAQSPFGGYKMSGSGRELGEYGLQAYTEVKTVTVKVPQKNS
The test is described as follows: SILAC RP-ABPP. In kind it is cell-based. The conditions noted are these: SILAC H/L, HEK293T. How it is done:
(§1) For MS-based experiments, labelling was performed in a similar manner as described above in Example 2, maintaining the same concentrations of probes. Modifications to this protocol included using isotopically ‘light’ and ‘heavy’ SILAC cells that were also grown to near complete confluence prior to treatment. Isotopically light cells were treated with the non-clickable hydrazine probe (at the same concentration as the probe in ‘enrichment’ experiments) or the probe in the presence of 10-fold excess non-clickable hydrazine probe as a competitor (in ‘competition’ experiments). Isotopically heavy cells were treated with the probe for both types of experiments. These treatments were performed in non-SILAC media. Following treatments, cells were washed with cold PBS to remove the probe-containing media, harvested by scraping, collected by centrifugation (1,400 g, 3 min, 4° C.), washed again by resuspension in cold PBS and frozen as pellets at −80° C. until use.
(§2) The fractionated equimolar mixture of heavy and light soluble proteomes (1-1.5 mg) was diluted to 1 mL in PBS. Click reactions were scaled accordingly (except for biotin-azide) to maintain final concentrations of 0.1 mM TBTA, 1 mM CuSO4, 100 μM biotin-azide (10 mM in DMSO) and 1 mM TCEP. The mixture was vortexed and placed on a rotator at ambient temperature for 1 hour. Sequential addition of and mixture with pre-chilled methanol (MeOH, 2 mL), chloroform (CHCl3, 0.5 mL) and PBS (1 mL) on ice quenched the reaction. The precipitated proteome was centrifuged (5,000 g, 10 min, 4° C.) to fractionate the protein interphase from the organic and aqueous solvent layers. The protein pellet was washed with cold 1:1 MeOH:CHCl3 (3×1 mL), mildly sonicated in cold 4:1 MeOH:CHCl3 (2.5 mL) and pelleted once more by centrifugation (5,000 g, 10 min, 4° C.) to ensure click reagents were efficiently removed.
(§3) Heavy and light parent ion chromatograms associated with successfully identified peptides were extracted and compared using CIMAGE software as previously described^69. At least one ion of a co-eluting heavy-light pair must be accurately identified from a fragmentation event that occurred within the retention time window (±10 min) of parent ion elution. To ensure that the correct pair of peaks is quantified, chromatograms are extracted within a 10 ppm error tolerance of the predicted m/z, the signal-to-noise ratio must be >2.5 and the ‘co-elution correlation score’ and ‘envelope correlation score’ must have R^2 values ≥0.8. In addition, peptides detected as ‘singletons,’ where only the heavy ion of a peptide pair was identified, but for which passed all other filtering parameters, are given a default assigned ratio of ‘20,’ which is defined as any measured ratio that is ≥20.
(§4) To further eliminate false positives and any stochastic variability in the data, protein ratios were then determined by the median peptide ratio derived from three or more unique quantified peptides. Protein ratios that complied with these criteria from a single experiment were then averaged with ratios acquired from ≥3 replicates to provide final values for each type of experiment in both cell lines with both probes. […] Most importantly, there are no robustly measured ratios for proteins identified as probe 1 targets that had measured ratios of ˜1 with probe 2. Probe targets in HEK293T and MDA-MB-231 cells represent data combined from ≥3 independent biological replicates with each cell type performed with several independent batches of synthesized probes over a period of almost two years. […]

For test [2], the target named is T2, PLD3 Phospholipase D3 (Q8IV08) (Homo sapiens, UniProt Q8IV08).
T2 construct: shared by both the endogenous and recombinant forms of these proteins; endogenous in cells; host or cells: HEK293T and MDA-MB-231
T2 sequence (Q8IV08 1-490): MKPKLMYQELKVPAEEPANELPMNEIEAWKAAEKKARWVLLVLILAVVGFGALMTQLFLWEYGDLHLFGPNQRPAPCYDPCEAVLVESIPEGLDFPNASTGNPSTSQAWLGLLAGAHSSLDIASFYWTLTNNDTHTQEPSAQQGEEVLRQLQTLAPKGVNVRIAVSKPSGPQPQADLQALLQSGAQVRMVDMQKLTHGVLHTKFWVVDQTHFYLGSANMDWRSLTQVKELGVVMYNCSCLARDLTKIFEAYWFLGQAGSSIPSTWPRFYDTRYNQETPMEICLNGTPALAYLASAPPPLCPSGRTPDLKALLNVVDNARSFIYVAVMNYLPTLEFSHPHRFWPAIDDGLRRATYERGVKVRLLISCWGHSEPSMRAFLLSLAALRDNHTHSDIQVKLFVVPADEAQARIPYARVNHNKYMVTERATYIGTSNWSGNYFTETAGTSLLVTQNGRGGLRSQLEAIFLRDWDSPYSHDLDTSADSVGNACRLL
The test can be described thus: SILAC RP-ABPP. It is filed as cell-based. The conditions noted are these: SILAC H/L, HEK293T. How it is done:
as §1, §2, §3, §4

As to `C#CCCNC(=O)c1ccc(NN)cc1.Cl` [probe 2, N-(but-3-yn-1-yl)-4-hydrazinylbenzamide hydrochloride], the enrichment ratioavg in test [1] (probe 2 1 mM 0.5 h vs probe 4) came to 11; in test [2] (probe 2 1 mM 0.5 h vs probe 4), 5. Further, the competition ratioavg in test [1] (probe 2 vs probe 2+10x probe 4) is reported as 6; in test [2] (probe 2 vs probe 2+10x probe 4) it was 2.

On to `C#CCNN.Cl` [probe 1, prop-2-yn-1-ylhydrazine hydrochloride], for which the enrichment ratioavg in test [1] (probe 1 3 mM 0.5 h vs probe 3) stood at 8; in test [2] (probe 1 3 mM 0.5 h vs probe 3), 12. Further, the competition ratioavg in test [1] (probe 1 vs probe 1+10x probe 3) and in test [2] (probe 1 vs probe 1+10x probe 3) was 2 in each case.
